Experiment [1] deals with T1, Peroxisome proliferator-activated receptor gamma (Homo sapiens, UniProt P37231).
T1 sequence (P37231 whole entry): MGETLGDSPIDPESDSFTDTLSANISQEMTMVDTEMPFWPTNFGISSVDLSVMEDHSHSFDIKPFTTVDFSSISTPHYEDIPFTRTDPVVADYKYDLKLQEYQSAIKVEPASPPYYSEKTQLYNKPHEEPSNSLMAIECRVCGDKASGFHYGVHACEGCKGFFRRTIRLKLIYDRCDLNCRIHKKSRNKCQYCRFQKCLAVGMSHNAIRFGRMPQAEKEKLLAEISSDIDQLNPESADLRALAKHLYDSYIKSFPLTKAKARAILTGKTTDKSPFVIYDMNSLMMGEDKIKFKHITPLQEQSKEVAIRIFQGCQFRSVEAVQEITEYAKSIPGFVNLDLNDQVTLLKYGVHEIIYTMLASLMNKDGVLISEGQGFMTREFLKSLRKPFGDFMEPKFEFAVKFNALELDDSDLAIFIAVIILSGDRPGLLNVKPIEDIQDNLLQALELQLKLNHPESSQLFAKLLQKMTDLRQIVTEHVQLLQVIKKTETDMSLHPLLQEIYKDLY
Nature of the experiment: Transactivation activity at PPARgamma (unknown origin).

The target in experiment [2] is T1, Peroxisome proliferator-activated receptor gamma. Nature of the experiment: Transactivation activity at Homo sapiens (human) PPARgamma.

`CCOC(=O)CN1C(=O)S/C(=C\c2ccc(OC)cc2)C1=O` gave a concentration giving a half-maximal response (EC50) in experiment [1] of 7 µM. The molecule `CCOC(=O)CN1C(=O)S/C(=C\c2ccc(C)cc2)C1=O` had an EC50 in experiment [1] of 9 µM. In experiment [1], `CCOC(=O)CN1C(=O)S/C(=C\c2cccc([N+](=O)[O-])c2)C1=O` had an EC50 of 11 µM. The EC50 values of the last two molecules are within 1.5-fold of each other. `CCOC(=O)CN1C(=O)S/C(=C\c2ccc(Cl)cc2)C1=O` had an EC50 in experiment [1] of 8 µM. The EC50 values of the last two molecules are within 1.5-fold of each other. In experiment [1], `CCOC(=O)CN1C(=O)S/C(=C\c2ccc(C(F)(F)F)cc2)C1=O` registered an EC50 of 10 µM. For the molecule `CCOC(=O)CN1C(=O)SC(Cc2ccc(N)cc2)C1=O` (stereo not given), the EC50 in experiment [1] was 8 µM. In turn, `CCOC(=O)CN1C(=O)SC(Cc2ccc(OCCBr)cc2)C1=O` (stereo not given) displayed an EC50 in experiment [1] of 12 µM. The molecule `C/C(=N\OCCOc1ccc(CC2SC(=O)NC2=O)cc1)c1ccc(-c2ccccc2)cc1` (stereo not given) returned an EC50 in experiment [1] greater than 0.4 µM. For the molecule `COC(=O)CN1C(=O)SC(Cc2ccc(O)cc2)C1=O` (stereo not given), the EC50 in experiment [1] amounted to 9 µM. The molecule `CCCc1cc(Oc2ccccc2)ccc1OCCCCOc1ccc(C2SC(=O)NC2=O)cc1` (stereo not given) gave a half-maximal effective concentration (EC50) in experiment [2] of 1 µM. With `CCOC(=O)CN1C(=O)S/C(=C\c2ccc(OCCBr)cc2)C1=O`, the concentration giving a half-maximal response (EC50) in experiment [1] came out at 11 µM. That is a double-digit micromolar value. The molecule `COC(=O)CN1C(=O)S/C(=C\c2ccc(O)cc2)C1=O` yielded a half-maximal effective concentration (EC50) in experiment [1] of 10 µM. `O=C1NC(=O)C(Cc2ccc3c(c2)CC[C@H](Cc2ccccc2)O3)S1` (stereo not given in full) [ENGLITAZONE] registered an EC50 in experiment [2] of 1 µM. `CCOC(=O)CN1C(=O)SC(Cc2ccc(F)cc2)C1=O` (stereo not given): the EC50 in experiment [1] came out at 10 µM. Same read-out and setting: the figure for `CCOC(=O)CN1C(=O)SC(Cc2ccc(C(F)(F)F)cc2)C1=O` (stereo not given) is 9 µM.

In general, EC50 refers to the concentration that produces a half-maximal response.
